pIC50, pKd: −log10 of the molar value. Where two headings read alike, the source gives them in different places.

In one test the target is SLT-1 (Verotoxin I) (Bacteriophage H30, UniProt P69178). The experiment in a line: biochemical. The class given is binding, E. coli.
In test [1] the test system is Vero cells exposed to SLT. It counts as cell-based, African Green Monkey.
Another test concerns the target SLT-2 (VT-2) (Escherichia phage 933W, UniProt P09386). It counts as binding, E. coli.
Another test addresses SLT-1 (VT-1) (Bacteriophage H30, UniProt P69178). The class given is binding, E. coli.
In another test the target is SLT-1 (Bacteriophage H30, UniProt P69178). Description: biochemical. It counts as binding, E. coli.
Sequence of SLT-1 (P69178 21-89 limits assumed): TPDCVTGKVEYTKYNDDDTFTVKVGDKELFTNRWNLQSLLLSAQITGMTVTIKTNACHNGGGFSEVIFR

Sequence of SLT-1 (Verotoxin I) (P69178 whole entry, looked up): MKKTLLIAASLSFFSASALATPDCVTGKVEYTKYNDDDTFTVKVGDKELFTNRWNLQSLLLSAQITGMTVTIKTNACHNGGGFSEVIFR
Sequence of SLT-2 (VT-2) (P09386 whole entry, looked up): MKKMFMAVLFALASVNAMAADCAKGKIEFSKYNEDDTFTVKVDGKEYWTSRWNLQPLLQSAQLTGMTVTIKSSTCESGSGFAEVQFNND
Sequence of SLT-1 (VT-1) (P69178 whole entry, looked up): as the sequence (P69178 whole entry, looked up) above

On to `CO[C@@H]1O[C@H](CO)[C@@H](O[C@@H]2O[C@H](CO)[C@H](O[C@H]3O[C@H](CO)[C@H](O)[C@H](O)[C@H]3O)[C@H](O)[C@H]2OCCOC(=O)NCC(O)CNC(=O)OCCO[C@H]2[C@H](O[C@H]3[C@H](O)[C@@H](O)[C@H](OC)O[C@@H]3CO)O[C@H](CO)[C@H](O[C@H]3O[C@H](CO)[C@H](O)[C@H](O)[C@H]3O)[C@@H]2O)[C@H](O)[C@H]1O` [Bridged P^k -trisaccharide methyl glycoside dimer], for which the pIC50 (usually −log10 of the IC50, conventionally taken in molar units) at SLT-1 (Verotoxin I) is 4.26. Also, the “activity relative to the Pk trisaccharide alone” value at SLT-1 (Verotoxin I) (ELISA, VT-I) is given as 38 times. In addition, the “inhibition of cell lysis caused by the SLT” value in test [1] was “more effective than a Pk-BSA conjugate at inhibiting cell lysis”.

`CO[C@@H]1O[C@H](CO)[C@@H](O[C@@H]2O[C@H](CO)[C@H](O[C@H]3O[C@H](CO)[C@H](O)[C@H](O)[C@H]3O)[C@H](O)[C@H]2OCCOC(=O)NCC(CNC(=O)OCCO[C@H]2[C@H](O[C@H]3[C@H](O)[C@@H](O)[C@H](OC)O[C@@H]3CO)O[C@H](CO)[C@H](O[C@H]3O[C@H](CO)[C@H](O)[C@H](O)[C@H]3O)[C@@H]2O)OC(=O)NCCCCCCCCNc2c(NCCNC(=O)CSCCCO[C@@H]3[C@@H](OCCCSCC(=O)NCCNc4c(NCCCCCCCCNC(=O)OC(CNC(=O)OCCO[C@H]5[C@H](O[C@H]6[C@H](O)[C@@H](O)[C@H](OC)O[C@@H]6CO)O[C@H](CO)[C@H](O[C@H]6O[C@H](CO)[C@H](O)[C@H](O)[C@H]6O)[C@@H]5O)CNC(=O)OCCO[C@H]5[C@H](O[C@H]6[C@H](O)[C@@H](O)[C@H](OC)O[C@@H]6CO)O[C@H](CO)[C@H](O[C@H]6O[C@H](CO)[C@H](O)[C@H](O)[C@H]6O)[C@@H]5O)c(=O)c4=O)[C@H](OC)O[C@H](CO)[C@H]3OCCCSCC(=O)NCCNc3c(NCCCCCCCCNC(=O)OC(CNC(=O)OCCO[C@H]4[C@H](O[C@H]5[C@H](O)[C@@H](O)[C@H](OC)O[C@@H]5CO)O[C@H](CO)[C@H](O[C@H]5O[C@H](CO)[C@H](O)[C@H](O)[C@H]5O)[C@@H]4O)CNC(=O)OCCO[C@H]4[C@H](O[C@H]5[C@H](O)[C@@H](O)[C@H](OC)O[C@@H]5CO)O[C@H](CO)[C@H](O[C@H]5O[C@H](CO)[C@H](O)[C@H](O)[C@H]5O)[C@@H]4O)c(=O)c3=O)c(=O)c2=O)[C@H](O)[C@H]1O` [Compound 24]: the results for the pIC50 against SLT-2 (VT-2), on SLT-1 (VT-1) and on SLT-1 (Verotoxin I) (read-out: IC50) were 7.54, 6.33 and 7.32, respectively.

With `CO[C@@H]1O[C@H](CO)[C@@H](O[C@@H]2O[C@H](CO)[C@H](O[C@H]3O[C@H](CO)[C@H](O)[C@H](O)[C@H]3O)[C@H](O)[C@H]2O)[C@H](O)[C@H]1O` [P^k -trisaccharide methyl glycoside, reference compound], the negative-log IC50 (pIC50) is 2.68 on SLT-1 (Verotoxin I) (IC50) and 2.70 at SLT-1 (Verotoxin I) (read-out: IC50). Moreover, the pKd – broadly, the negative decadic logarithm of the Kd, by convention in mol/L – on SLT-1 is around 3.00.

Values taken from US6310043A (priority 1999, dated 2001).
